Consider eight compounds from US11197862B2, “Methods of preventing toxicity of platinum drugs” (XOMICS BIOPHARMA, INC., priority 2015, dated 2021).

The structures appear in SMILES notation. Where two headings read alike, the source gives them in different places. Some results are limits rather than exact numbers.

Series [1] deals with T1, OCT2 (Homo sapiens, UniProt O15244).
T1 sequence (O15244 1-555): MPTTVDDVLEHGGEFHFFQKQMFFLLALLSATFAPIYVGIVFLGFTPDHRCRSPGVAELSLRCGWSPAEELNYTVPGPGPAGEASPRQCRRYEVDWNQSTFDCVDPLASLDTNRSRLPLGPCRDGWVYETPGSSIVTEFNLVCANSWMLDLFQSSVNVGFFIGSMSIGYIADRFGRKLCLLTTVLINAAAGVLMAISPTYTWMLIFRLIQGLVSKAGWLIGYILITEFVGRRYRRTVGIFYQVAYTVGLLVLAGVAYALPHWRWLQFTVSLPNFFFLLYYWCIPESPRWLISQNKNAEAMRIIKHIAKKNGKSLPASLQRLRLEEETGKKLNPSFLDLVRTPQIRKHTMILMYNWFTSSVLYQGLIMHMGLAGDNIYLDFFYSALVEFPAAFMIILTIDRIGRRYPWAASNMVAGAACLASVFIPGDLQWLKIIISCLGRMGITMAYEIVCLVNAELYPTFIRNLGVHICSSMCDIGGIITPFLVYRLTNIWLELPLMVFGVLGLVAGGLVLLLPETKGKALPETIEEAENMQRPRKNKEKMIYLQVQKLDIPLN
The series can be described thus: Inhibition of OCT2-mediated oxaliplatin uptake in transfected MDCK-II cells (protein-free HBSS). The following applies: for inhibition at 30 min, 5 μM / inhibition at 30 min, 50 μM / potency estimated from few doses at 30 min: human. From the text:
Fully confluent MDCK cell monolayers were transfected with either cDNA plasmids encoding the human transporter to be tested or a GFP control. […] The cells were then washed with ice-cold PBS and lysed with 50:50 acetonitrile:H2O. Intracellular content of the substrate was quantified by LC/MS/MS or a MicroBeta radiometric plate reader.

The target in series [2] is T1, OCT2. The settings on record: OCT2-mediated uptake; ASP+ 5 μM in HBSS; from Kido Y et al. J Med Chem 2011; cited from earlier work.
The target of series [3] is T1, OCT2. Nature of the series: Inhibition of OCT2-mediated ASP+ uptake (Kido et al., Giacomini group).
The conditions of series [4]: cited from earlier work; for Plasma protein binding (%): published data; for Cmax: read-out: Plasma peak total concentration Cmax, published clinical pharmacokinetic data.
The nature of series [5]: Published clinical pharmacokinetic data. The following applies: from published Cmax and protein binding.
The target of series [6] is T1, OCT2. Nature of the series: Inhibition of OCT2-mediated metformin uptake in transfected MDCK-II cells. The following applies: for inhibition at 5 min, 5 μM / inhibition at 5 min, 50 μM: human.
Series [7] has as its target T1, OCT2. Nature of the series: Inhibition of OCT2-mediated oxaliplatin transport in 100% human serum or HBSS containing 4% BSA (IC50,app).
In series [8] the target is T1, OCT2. The series can be described thus: in vitro.
The conditions of series [9]: human, in vivo.
For series [10] the following is noted: clinical dose; cited from earlier work.
Where [11] appears, read: human, cell line expressing human OCT2 (cell line not given), probe ASP+ 5 μM.
[12] abbreviates: MDCK-II cells transfected with human OCT2, probe oxaliplatin 10 μM.
The mark [13] stands for this setting: IC50 (μM) (substrate Oxaliplatin).

Turning to `OCC(O)COc1ccc(Cl)cc1` (stereo not shown) [Chlorphenesin], on OCT2 [1], the inhibition at 30 min, 5 μM is 14%; the inhibition at 30 min, 50 μM is 30%; the potency estimated from few doses at 30 min is 118 µM. Also, the “Inhibition % @ 20 μM (substrate ASP+)” value on OCT2 [2] is 96%. Moreover, the potency estimated from few doses on OCT2 [3] (setting [11]) was 0.86 µM.
With `C[N+]1(C)[C@@H]2C[C@@H](OC(=O)C(O)(c3cccs3)c3cccs3)C[C@H]1[C@@H]1O[C@@H]12` [Tiotropium•Br], at OCT2 [1], the IC50 worked out at 120 nM; the inhibition at 30 min, 5 μM was 98%; the inhibition at 30 min, 50 μM is 102%; the potency estimated from few doses at 30 min is 0.12 µM. Further, in [4], the “Plasma protein binding (%)” value is reported as 72% and the Cmax is 34 nM. The “Plasma peak unbound concentration Cmax,u” value in [5] was 10 nM. Also, on OCT2 [6], the IC50 came out at 1.5 µM; the inhibition at 5 min, 5 μM is 77%; the inhibition at 5 min, 50 μM was determined as 95%. In addition, the IC50 against OCT2 [7] is 1.1 µM.
Compound `C=C1C[C@@H]2[C@H](CC[C@]3(C)C(=O)CC[C@@H]23)[C@@]2(C)C=CC(=O)C=C12` [Exemestane] displayed a concentration for half-maximal inhibition (IC50) on OCT2 [1] of 190 nM. Also, at OCT2 [1] (setting [12]), the inhibition at 30 min, 5 μM turned out to be 96%; the inhibition at 30 min, 50 μM was determined as 102%; the potency estimated from few doses at 30 min was 0.19 µM. Further, at OCT2 [8], the inhibition at 5 min, 5 μM is 66% and the inhibition at 5 min, 50 μM is 94%. Besides, the “Inhibition % @ 20 μM (substrate ASP+)” value on OCT2 [2] was 100%. In [4], the “Plasma protein binding (%)” value is on record as 90% and the Cmax was 91 nM. The “Plasma peak unbound concentration Cmax,u” value in series [5] came to 10 nM. Besides, at OCT2 [3] (setting [11]), the potency estimated from few doses is less than 0.1 µM. Also, the midpoint of inhibition against OCT2 [6], the IC50, lay at 2.6 µM.
In the case of `CC(C)[N+]1(C)[C@@H]2CC[C@H]1CC(OC(=O)C(CO)c1ccccc1)C2.[Br-]` (stereo partly shown) [Ipratropium•Br], the “Inhibition % @ 5 μM (substrate Oxaliplatin)” value at OCT2 [1] (OCT2-mediated uptake, oxaliplatin 10 μM in HBSS, 30 min, inhibitor 5 μM) came out at 107%. In addition, the “Inhibition % @ 50 μM (substrate Oxaliplatin)” value at OCT2 [1] (OCT2-mediated uptake, oxaliplatin 10 μM in HBSS, 30 min, inhibitor 50 μM) is on record as 104%. The potency estimated from few doses at OCT2 [1] (read-out: IC50 (μM) (substrate Oxaliplatin), OCT2-mediated uptake, oxaliplatin 10 μM in protein-free HBSS, estimated from single concentration or nonlinear regression) was less than 0.1 µM; at OCT2 [3] (read-out: IC50 (μM) (substrate ASP+), estimated from the inhibition at the single concentration 20 μM), 0.81 µM. Further, the IC50 is less than 100 nM on OCT2 [1] (read-out: IC50 or Ki, intrinsic inhibition constant in protein free HBSS, OCT2-mediated oxaliplatin uptake) and 0.32 µM at OCT2 [6] (read-out: IC50 (μM) (substrate Metformin), OCT2-mediated uptake, metformin 10 μM in HBSS, estimated from 50 μM or regression of seven concentrations (±SEM)). In addition, at OCT2 [2], the “Inhibition % @ 20 μM (substrate ASP+)” value is 96%. For the same compound, the “Inhibition % @ 5 μM (substrate Metformin)” value at OCT2 [6] (OCT2-mediated uptake, metformin 10 μM in HBSS, 5 min, inhibitor 5 μM) amounted to 94%. Besides, at OCT2 [6] (OCT2-mediated uptake, metformin 10 μM in HBSS, 5 min, inhibitor 50 μM), the “Inhibition % @ 50 μM (substrate Metformin)” value turned out to be 97%.
In the case of `CC(C)[N+](C)(CCOC(=O)C1c2ccccc2Oc2ccccc21)C(C)C` [Propantheline•Br], the IC50 against OCT2 [1] is less than 100 nM. At OCT2 [1] (setting [13]), the potency estimated from few doses at 30 min was less than 0.1 µM. Also, at OCT2 [1] (setting [12]), the inhibition at 30 min, 5 μM was 103% and the inhibition at 30 min, 50 μM worked out at 102%. Moreover, on OCT2 [8], the inhibition at 5 min, 5 μM was determined as 75% and the inhibition at 5 min, 50 μM amounted to 96%. Also, the “Inhibition % @ 20 μM (substrate ASP+)” value at OCT2 [2] was 107%. For the same compound, the Cmax in series [4] was 134 nM. Besides, the potency estimated from few doses on OCT2 [3] (setting [11]) is less than 0.1 µM. The same compound showed an IC50 against OCT2 [6] of 1.7 µM. The IC50 at OCT2 [7] (IC50,app (μM), apparent inhibition constant in 100% human serum or HBSS containing 4% BSA, OCT2-mediated oxaliplatin uptake) is 0.24 µM.
Take `NC1=NCC2c3ccccc3Cc3ccccc3N12` (stereo not shown) [Epinastine]: at OCT2 [1], the IC50 amounted to 190 nM; the inhibition at 30 min, 5 μM worked out at 96%; the inhibition at 30 min, 50 μM was 100%; the potency estimated from few doses at 30 min was 0.19 µM. For the same compound, the “Inhibition % @ 20 μM (substrate ASP+)” value on OCT2 [2] is given as 97%. Moreover, in [4], the “Plasma protein binding (%)” value is listed as 64.2% and the Cmax is 120 nM. The “Plasma peak unbound concentration Cmax,u” value in series [5] came to 40 nM. The potency estimated from few doses at OCT2 [3] (setting [11]) is 0.58 µM. Besides, at OCT2 [6], 3.9 µM corresponded to half-maximal inhibition (IC50); the inhibition at 5 min, 5 μM was 56%; the inhibition at 5 min, 50 μM was 92%.
Turning to `N=C(N)c1ccc(OCCCCCOc2ccc(C(=N)N)cc2)cc1` [Pentamidine], on OCT2 [1], the IC50 is 67 nM; the inhibition at 30 min, 5 μM came out at 99%; the inhibition at 30 min, 50 μM is 99%. Moreover, on OCT2 [1] (setting [13]), the potency estimated from few doses at 30 min is 0.07 µM. Further, the “Plasma peak unbound concentration Cmax,u” value in series [9] was 230 nM. In series [10], the “patients with nephrotoxicity at a clinical dose” value was approximately 25%. Further, at OCT2 [8], the inhibition at 5 min, 5 μM was 67% and the inhibition at 5 min, 50 μM turned out to be 91%. Besides, on OCT2 [2], the “Inhibition % @ 20 μM (substrate ASP+)” value is given as 102%. Besides, in series [4], the “Plasma protein binding (%)” value is listed as 69% and the Cmax was 730 nM. For the same compound, the potency estimated from few doses on OCT2 [3] (setting [11]) was less than 0.1 µM. This compound came in with an IC50 against OCT2 [6] of 2.5 µM.
As for `Cc1ccc(NC(=O)c2ccc(CN3CCN(C)CC3)cc2)cc1Nc1nccc(-c2cccnc2)n1` [Imatinib], the “fold less potent as inhibitor of OCT2-mediated metformin and oxaliplatin uptake than of ASP+ uptake” value at OCT2 [1] (comparison of Table 1 potencies) was more than 30 fold. Also, on OCT2 [1], the inhibition at 30 min, 5 μM came out at 57% and the inhibition at 30 min, 50 μM was determined as 95%. The potency estimated from few doses at 30 min at OCT2 [1] (setting [13]) is 3.7 µM. For the same compound, on OCT2 [2], the “Inhibition % @ 20 μM (substrate ASP+)” value is reported as 103%. The potency estimated from few doses on OCT2 [3] (setting [11]) was less than 0.1 µM.

What is called inhibition is the drop in the measured response relative to a control, in per cent. As a reminder, the IC50 is the concentration that gives 50% inhibition.
